Data on eight molecules can be found in patent publication US20230374034A1, “NOVEL BICYCLIC COMPOUNDS” (PRISM BIOLAB CO., LTD., priority 2020, published 2023).

This assay concerns NICD (Notch intracellular domain) CSL-bla reporter in HeLa cells. Nature of the assay: Notch assay (CellSensor T-REx NICD CSL-bla HeLa beta-lactamase reporter; Method 1 / Method 2). The format is cell-based. Conditions: Homo sapiens, 10 μM compound, Method 2 (40 nL of 1000× compound added to plate with Echo), read-out: inhibiton (%) at 10 μM. The essentials:
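HeLa cells carrying doxycycline-inducible NICD and a CSL-driven beta-lactamase reporter, 10^3 cells/well, were treated with compound plus doxycycline for 16-20 h at 37 °C. CCF4-AM substrate was loaded for 4 h at room temperature; background-subtracted blue (460 nm)/green (530 nm) emission ratio taken per well.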
As to `CCCC[C@@H](C(=O)NCCCC(C)C)N1CC2N(C(=O)OCCc3ccc(O)cc3)O[C@H](CC(C)C)C(=O)N2[C@@H](Cc2ccc(O)cc2)C1=O` (stereo partly drawn) [Compound I-101, 4-hydroxyphenethyl (3R,6S)-6-(4-hydroxybenzyl)-3-isobutyl-8-((S)-1-((4-methylpentyl)amino)-1-oxohexan-2-yl)-4,7-dioxohexahydropyrazino[2,1-c][1,2,4]oxadiazine-1(6H)-carboxylate], the inhibition at 10 µM was determined as 54.4%.
On to `CC(C)C[C@H]1ON(C(=O)OCCc2ccccc2)C2CN([C@@H](Cc3ccc(O)cc3)C(=O)NCCc3ccccc3)C(=O)[C@H](Cc3ccc(O)cc3)N2C1=O` (stereo partly drawn) [Compound I-102, phenethyl (3R,6S)-6-(4-hydroxybenzyl)-8-((S)-3-(4-hydroxyphenyl)-1-oxo-1-(phenethylamino)propan-2-yl)-3-isobutyl-4,7-dioxohexahydropyrazino[2,1-c][1,2,4]oxadiazine-1(6H)-carboxylate], for which the inhibition at 10 µM stood at 67.3%.
`CCCC[C@@H](C(=O)NCCc1ccccc1)N1CC2N(C(=O)OCCc3ccc(O)cc3)O[C@H](CC(C)C)C(=O)N2[C@@H](Cc2ccc(O)cc2)C1=O` (stereo partly drawn) [Compound I-103, 4-hydroxyphenethyl (3R,6S)-6-(4-hydroxybenzyl)-3-isobutyl-4,7-dioxo-8-((S)-1-oxo-1-(phenethylamino)hexan-2-yl)hexahydropyrazino[2,1-c][1,2,4]oxadiazine-1(6H)-carboxylate]: the inhibition at 10 µM came to 59.9%.
The same measure for `CC(C)CCCNC(=O)[C@H](CC(C)C)N1CC2N(C(=O)OCCc3ccc(O)cc3)O[C@H](Cc3ccccc3)C(=O)N2[C@@H](Cc2ccc(O)cc2)C1=O` (stereo partly drawn) [Compound I-104, 4-hydroxyphenethyl (3R,6S)-3-benzyl-6-(4-hydroxybenzyl)-8-((S)-4-methyl-1-((4-methylpentyl)amino)-1-oxopentan-2-yl)-4,7-dioxohexahydropyrazino[2,1-c][1,2,4]oxadiazine-1(6H)-carboxylate]: 70.2%.
On to `CC(C)CCOC(=O)N1O[C@H](Cc2ccccc2)C(=O)N2C1CN([C@@H](Cc1ccccc1)C(=O)NCCc1ccccc1)C(=O)[C@@H]2Cc1ccc(O)cc1` (stereo partly drawn) [Compound I-105, isopentyl (3R,6S)-3-benzyl-6-(4-hydroxybenzyl)-4,7-dioxo-8-((S)-1-oxo-1-(phenethylamino)-3-phenylpropan-2-yl)hexahydropyrazino[2,1-c][1,2,4]oxadiazine-1(6H)-carboxylate], for which the inhibition at 10 µM is 60.9%.
Regarding `CC(C)CCOC(=O)N1O[C@H](Cc2ccccc2)C(=O)N2C1CN([C@@H](Cc1ccccc1)C(=O)NCCCO)C(=O)[C@@H]2Cc1ccc(O)cc1` (stereo partly drawn) [Compound I-106, isopentyl (3R,6S)-3-benzyl-6-(4-hydroxybenzyl)-8-((S)-1-((3-hydroxypropyl)amino)-1-oxo-3-phenylpropan-2-yl)-4,7-dioxohexahydropyrazino[2,1-c][1,2,4]oxadiazine-1(6H)-carboxylate], the inhibition at 10 µM worked out at 52%.
For `CC(C)CCNC(=O)[C@H](Cc1ccc(O)cc1)N1CC2N(C(=O)OCCC(C)C)O[C@H](Cc3ccccc3)C(=O)N2[C@@H](Cc2ccc(O)cc2)C1=O` (stereo partly drawn) [Compound I-107, isopentyl (3R,6S)-3-benzyl-6-(4-hydroxybenzyl)-8-((S)-3-(4-hydroxyphenyl)-1-(isopentylamino)-1-oxopropan-2-yl)-4,7-dioxohexahydropyrazino[2,1-c][1,2,4]oxadiazine-1(6H)-carboxylate], the inhibition at 10 µM came out at 61.1%.
The result for `CC(C)CCNC(=O)[C@H](Cc1ccc(O)cc1)N1CC2N(C(=O)OCCc3ccc(O)cc3)O[C@H](Cc3ccccc3)C(=O)N2[C@@H](Cc2ccc(O)cc2)C1=O` (stereo partly drawn) [Compound I-108, 4-hydroxyphenethyl (3R,6S)-3-benzyl-6-(4-hydroxybenzyl)-8-((S)-3-(4-hydroxyphenyl)-1-(isopentylamino)-1-oxopropan-2-yl)-4,7-dioxohexahydropyrazino[2,1-c][1,2,4]oxadiazine-1(6H)-carboxylate] reads 72.4%.
